# Non-standard residues stand in square brackets, D forms with d. No end group written: not given here. pY = N[C@@H](Cc1ccc(OP(=O)(O)O)cc1)C(=O)O
# Columns and labels:
# [1] = tested on: cancer cells; experiment: Confocal microscopy of peptide localisation; format: cell-based; settings: 1 μM, 1 hour
# Method: (§1) Figure 8 PS-Gp130 and PS-MYC blocking peptides efficiently internalize into tumor cells to exert their functions. (A) For 1 hour 1 μM of PS-conjugated MYC (PS-MYC) and Gp130 (PS-Gp130) were incubated with cancer cells. PS-scramble MYC (PS-SC-MYC) was used as a control for PS-MYC. The peptide uptake was visualized by confocal microscopy and quantified by flow cytometry. Data are representative of 3 independent experiments (n = 3). (B) Upper panel: The binding of PS-Gp130 and STAT3 was examined by immunoprecipitation and Western blotting. PO-Gp130 was used as a control. For 4 hours prior to harvest, 1 μM of peptide was incubated with cells. Lower panel: PS-Gp130 inhibits IL-6–induced phosphorylation of STAT3 and p44/42 but not EGF-mediated signaling. The cells were preincubated with PS-Gp130 for 2 hours and then stimulated with 20 ng/mL of IL-6 or 30 ng/mL of EGF for 30 minutes before harvest and Western blotting. (C) Gene expression of STAT3 targets was examined by quantitative PCR after the treatment with 1 μM of PS-Gp130 with or without IL-6 stimulation as described above. Data shown are 3 independent experiments (n = 3); SD is shown. Unpaired Student’s t test; ***P < 0.005; **P < 0.01; *P < 0.05. (D) A total of 1 μM of PS-SC-MYC or PS-MYC was incubated with cells for 48 hours before the gene expression of MYC targets was examined by quantitative PCR. […]
# [2] = tested on: STAT3 signaling; experiment: Gene expression of STAT3 targets by quantitative PCR; format: cell-based; settings: 1 μM, with or without IL-6 stimulation, n = 3
# Method: as §1, with “Lower panel: PS-Gp130 inhibits IL-6–induced phosphorylation of STAT3 and p44/42 but not EGF-mediated signaling. The cells were preincubated with PS-Gp130 for 2 hours and then stimulated with 20 ng/mL of IL-6 or 30 ng/mL of EGF for 30 minutes before harvest and Western blotting.” left out, “Data shown are 3 independent experiments (n = 3); SD is shown. Unpaired Student’s t test; ***P < 0.005; **P < 0.01; *P < 0.05.” left out
# Total RNA was extracted from cultured or tumor tissues using RNeasy kit (QIAGEN), according to manufacturer’s instruction. After cDNA synthesis using iScript cDNA Synthesis kit (Bio-Rad), samples were analyzed using pairs of primers specific for CASP9, CASP3, CASP8, BIRC5, BCL2L1, MYC, TP53, VEGF, IL1B, SERPIN3, FGA, CDK4, CCND2, CDKN2A, CDKN2B, GADD45A, mCD274, mMmp9, and mBirc5, as indicated. […]
substance,measurement,setting,value
"PS-Gp130: PS-conjugated Gp130 peptide (amino acids 901–910) with phospho-Tyr905 (MPKS[pY]LPQTV; also: phosphorothioate oligonucleotide conjugate; UniProt P40189 901-910, looked up, fragment)",intracellular localisation / retention of peptide,[1],detected in the cytoplasm or associated with the membrane
same,STAT3 signaling (gene expression of STAT3 targets),[2],significantly blocked
